Experimental data as given in patent US12263146B2, “Non-linear dosing of mirdametinib” (SpringWorks Therapeutics Inc., priority 2022, dated 2025).

Test system: patients ≥2 and <25 years with brain cancer
Experiment: Phase I/II trial of single agent mirdametinib in children, adolescents and young adults with brain cancer
Format: in vivo, human
Protocol: Example 1: Phase I/II Evaluation of Single Agent Mirdametinib, a Brain-Penetrant MEK1/2 Inhibitor, for the Treatment of Children, Adolescents, and Young Adults with Brain Cancer A multi-arm […] trial of mirdametinib is to be conducted in patients ≥2 and <25 years with brain cancer. Phase I requires participants have no prior exposure to MEK inhibitors and recurrent/progressive disease with biopsy-proven evidence of MAPK pathway activation. Three escalating dose levels (2 mg/m^2/dose BID, 2.5 mg/m^2/dose BID and 3 mg/m^2/dose BID) are planned using a rolling 6 design. The median age enrolled in the study is 10 years old (3-21).

## O=C(NOC[C@H](O)CO)c1ccc(F)c(F)c1Nc1ccc(I)cc1F (single isomer, unassigned) [mirdametinib]
2, 2.5 and 3 mg/m^2/dose BID, patients with brain cancer
  MEK related retinopathy or cardiopathy: No MEK related retinopathy or cardiopathy is observed
2, 2.5 and 3 mg/m^2/dose BID, patients with recurrent/progressive brain cancer with MAPK pathway activation
  disease progressions: No disease progressions
All three dose levels (2, 2.5 and 3 mg/m^2/dose BID), patients with brain cancer, no prior MEK inhibitor
  dose-limiting toxicities: No dose-limiting toxicities
Dosed continuously in patients with brain cancer
  clinical activity (overall statement): clinically promising
